Test results reported in PMC8175350, “Drug repurposing screens identify chemical entities for the development of COVID-19 interventions” (Nature Communications, 2021).
Where a name gives a salt, the structure may show the parent alone. Read-outs that look alike come from different tables or passages of the source.

How the values were obtained:
SARS-CoV-2 [1] = test: microbe, parasite or virus in culture; type: cell-based; conditions: for Emax: Severe acute respiratory syndrome coronavirus 2, HeLa-ACE2, 24 h, read-out: HeLa-ACE2 CoV-2 Sinf Average; for EC50: read-out: HeLa-ACE2 CoV-2 EC50 GeoMean
[2] = Uninfected HeLa-ACE2 24 h live/dead cytotoxicity counter screen; type: cell-based, human; conditions: human, uninfected HeLa-ACE2 cells; read-out: HeLa-ACE2 uninfected cytotoxicity CC50 GeoMean
HeLa-ACE2 cells [3] = test: as above; type: cell-based, human
SARS-CoV-2 [4] = test: microbe, parasite or virus in culture; type: cell-based; conditions: for Emax: Severe acute respiratory syndrome coronavirus 2, Calu-3, 48 h, read-out: Calu-3 CoV-2 Sinf Average; for EC50: read-out: Calu-3 CoV-2 EC50 GeoMean
SARS-CoV-2 [5] = test: microbe, parasite or virus in culture; type: cell-based; conditions: for Emax: Severe acute respiratory syndrome coronavirus 2, HeLa-ACE2, 10 h, read-out: HeLa-ACE2 TOA CoV-2 Sinf Average; for EC50: read-out: HeLa-ACE2 TOA CoV-2 EC50 GeoMean
HeLa-ACE2 cells [6] = test: Total cell count in the HeLa-ACE2 TOA (time of addition) assay; type: cell-based, human; conditions: for EC50: Homo sapiens, HeLa-ACE2, read-out: HeLa-ACE2 TOA cell count EC50 GeoMean
Calu-3 cells [7] = conditions: for Calu-3 uninfected cytotoxicity Sinf Average: human
HepG2 [8] = conditions: human
HEK293T [9] = conditions: human
HeLa-ACE2 cells [10] = test: cells; conditions: Homo sapiens; for Emax: HeLa-ACE2, 24 h, read-out: HeLa-ACE2 cell count Sinf Average; for EC50: HeLa-ACE2, read-out: HeLa-ACE2 cell count EC50 GeoMean
Calu-3 cells [11] = test: cells; conditions: Homo sapiens; for EC50: Calu-3, read-out: Calu-3 cell count EC50 GeoMean; for Emax: Calu-3, 48 h, read-out: Calu-3 cell count Sinf Average
in vitro = conditions: human, Calu-3 uninfected cytotoxicity CC50 GeoMean
SARS-CoV-2 [12] = type: cell-based; conditions: combination with remdesivir
[13] = HepG2 72 h CellTiter-Glo cytotoxicity; conditions: human, HepG2 cells
HepG2 [14] = test: HepG2 72 h CellTiter-Glo cytotoxicity; conditions: 72 h
[15] = HEK293T 72 h CellTiter-Glo cytotoxicity; conditions: human, HEK293T cells
HEK293T [16] = test: HEK293T 72 h CellTiter-Glo cytotoxicity; conditions: 72 h
[17] = Uninfected Calu-3 48 h Cell-Titer Glo cytotoxicity counter screen; conditions: human, uninfected Calu-3 cells, Calu-3 uninfected cytotoxicity CC50 GeoMean
Calu-3 cells [18] = test: as above; conditions: human, uninfected Calu-3 cells, 48 h
[19] = Severe acute respiratory syndrome coronavirus 2, HeLa-ACE2, detail column
[20] = selectivity index, uninfected HeLa-ACE2 CC50 / SARS-CoV-2 EC50
[21] = human, uninfected HeLa-ACE2 cells, 24 h
[22] = Severe acute respiratory syndrome coronavirus 2, Calu-3, detail column
[23] = selectivity index, uninfected Calu-3 CC50 / SARS-CoV-2 EC50
[24] = Severe acute respiratory syndrome coronavirus 2, HeLa-ACE2
[25] = Severe acute respiratory syndrome coronavirus 2, Calu-3

Row | SMILES | Emax (SARS-CoV-2 [1]) | EC50 (SARS-CoV-2 [1]; [19]) | HeLa-ACE2 SI (SARS-CoV-2 [1]; [20]) | CC50 at 24 h [2] | HeLa-ACE2 uninfected cytotoxicity Sinf Average (HeLa-ACE2 cells [3]; [21]) | Emax (SARS-CoV-2 [4]) | EC50 (SARS-CoV-2 [4]; [22]) | Calu-3 SI (SARS-CoV-2 [4]; [23]) | TOA:HeLa-ACE2 EC50 Ratio (SARS-CoV-2 [5]) | Emax (SARS-CoV-2 [5]) | EC50 (SARS-CoV-2 [5]; [24]) | EC50 (HeLa-ACE2 cells [6]) | uninfected Calu-3 CC50 (Calu-3 cells [7]) | Calu-3 uninfected cytotoxicity Sinf Average (Calu-3 cells [7]; 48 h) | HepG2 72-hour cytotoxicity Sinf Average (HepG2 [8]; 72 h) | HEK293T 72-hour cytotoxicty Sinf Average (HEK293T [9]; 72 h) | Emax (HeLa-ACE2 cells [10]) | EC50 (HeLa-ACE2 cells [10]) | EC50 (Calu-3 cells [11]) | CC50 at 48 h (in vitro) | further results
1 | CCCCN1CC[C@H](c2ccc(N(C)C)cc2)[C@@H](COc2ccc(C(F)(F)F)cc2)C1 [NNC 090026] | 94% | 2750 nM | > 5.59 | > 15.4 µM | -100% | 100% | > 8.31 µM | > 2.83 | 1.737 | 100% | 4.77 µM | > 9.61 µM | > 23.525 ×÷ 1.612 (n=4) μM | -100% | -100% | -100% | 96% | > 8.97 µM | > 9.98 µM | > 23.5 µM | 
2 | COc1cc(C[C@H]2c3cc(OC)c(OC)cc3CCN2C)c(Oc2cc3c(cc2OC)-c2c(OC)c(OC)cc4c2[C@H](C3)N(C)CC4)cc1OC [Thalicarpine] | 96% |  |  | > 26.6 µM |  |  |  |  | 16.501 | 100% |  | > 9.61 µM |  |  |  |  |  | > 9.6 µM | > 9.98 µM |  | HeLa-ACE2 SI (SARS-CoV-2 [1]): > 45.67; EC50 (SARS-CoV-2 [1]; [24]): 582 nM; HeLa-ACE2 uninfected cytotoxicity Sinf Average (HeLa-ACE2 cells [3]): -99%; EC50 (SARS-CoV-2 [4]; [25]): > 9.98 µM; EC50 (SARS-CoV-2 [5]; [19]): > 9.61 µM; Calu-3 uninfected cytotoxicity Sinf Average (Calu-3 cells [7]): -92%; HepG2 72-hour cytotoxicity Sinf Average (HepG2 [8]): -105%; HEK293T 72-hour cytotoxicty Sinf Average (HEK293T [9]): -105%; Emax (Calu-3 cells [11]): -100%; CC50 (in vitro): > 15.3 µM
3 | CCCCC1CCc2cc(O)cc3c(CCN4CCN(c5cc(C)ccn5)CC4)c(C)n1c23 (stereo not drawn) [KC 11404] | 100% | 2500 nM | > 8.39 | > 20.9 µM | -100% | 100% | 8.02 µM | 1.59 | 0.864 | 100% | 2.16 µM | > 9.59 µM | 12.778 ×÷ 1.123 (n=3) μM | -100% | -101% | -100% | 100% | > 9.59 µM | > 9.98 µM | 12.8 µM | HeLa-ACE2 synergy score with remdesivi (SARS-CoV-2 [12]): -2.817 δ; HeLa-ACE2 TOA cell count Sinf Average (HeLa-ACE2 cells [6]): 100%
4 | OC(CNCC(O)C1CCc2cc(F)ccc2O1)C1CCc2cc(F)ccc2O1 (stereo not drawn) [Nebivolol HCl] | 99% | 2960 nM | > 3.75 | > 11.1 µM | -103% | 100% | > 8.69 µM | < 1.57 | 0.619 | 98% | 1.83 µM | > 4.56 µM |  |  |  |  | 100% | > 9.12 µM | > 9.98 µM |  | HeLa-ACE2 TOA cell count Sinf Average (HeLa-ACE2 cells [6]): 70%; CC50 at 72 h [13]: 7.62 µM; HepG2 72-hour cytotoxicity Sinf Average (HepG2 [14]): -99%; CC50 at 72 h [15]: 5.57 µM; HEK293T 72-hour cytotoxicty Sinf Average (HEK293T [16]): -106%; CC50 at 48 h [17]: 13.6 µM; Calu-3 uninfected cytotoxicity Sinf Average (Calu-3 cells [18]): -100%
5 | CCN(CC)CCCNc1ccnc2cc(Cl)ccc12 [AQ-13] | 101% | 800 nM | 32.34 | 25.9 µM | -100% | 100% |  |  | 12.002 | 100% |  | > 9.61 µM | > 29.255 ×÷ 1.046 (n=4) μM | -100% | -100% | -100% |  | > 9.6 µM | > 9.98 µM | > 29.3 µM | EC50 (SARS-CoV-2 [4]; [25]): > 9.98 µM; EC50 (SARS-CoV-2 [5]; [19]): > 9.61 µM; HeLa-ACE2 synergy score with remdesivi (SARS-CoV-2 [12]): -1.765 δ
6 | Cc1cccc(/C=N/Nc2cc(N3CCOCC3)n3nc(-c4ccncc4)cc3n2)c1 [APY0201] | 96% | 14 nM | > 2853.95 | > 39.4 µM | -100% | 97% | > 9.39 µM |  |  | 100% |  | > 9.59 µM | > 26.965 ×÷ 1.196 (n=6) μM | -100% | -100% | -96% |  | > 9.59 µM | > 9.98 µM | > 27 µM | EC50 (SARS-CoV-2 [5]; [19]): > 9.59 µM; Emax (Calu-3 cells [11]): 100%
7 | CC(C)Oc1ccc(-c2nc(-c3cccc4c3CC[C@@H]4NCCO)no2)cc1C#N [Ozanimod] | 101% | 2630 nM | > 5.60 | > 14.7 µM | -101% | 97% | > 7.74 µM | < 1.72 | 2.748 | 100% | > 7.24 µM | > 9.59 µM | 13.319 ×÷ 1.347 (n=3) μM | -100% | -103% | -100% | 100% | > 8.74 µM | > 9.98 µM | 13.3 µM | HeLa-ACE2 synergy score with remdesivi (SARS-CoV-2 [12]): -4.622 δ; Emax (Calu-3 cells [11]): 100%
8 | Cc1c(-c2ccc(O)cc2)n(Cc2ccc(OCCN3CCCCCC3)cc2)c2ccc(O)cc12 [Bazedoxifene acetate] | 100% |  |  | > 20.7 µM |  | 94% |  |  |  | 100% | > 4.47 µM | > 9.59 µM |  |  |  |  | 100% | > 8.59 µM | > 9.98 µM |  | EC50 (SARS-CoV-2 [1]; [24]): 2880 nM; EC50 (SARS-CoV-2 [4]; [25]): > 7.73 µM; CC50 at 72 h [13]: 3.21 µM; HepG2 72-hour cytotoxicity Sinf Average (HepG2 [14]): -99%; CC50 at 72 h [15]: 9.19 µM; HEK293T 72-hour cytotoxicty Sinf Average (HEK293T [16]): -106%; CC50 at 48 h [17]: 10.6 µM
9 | Nc1nc(Nc2ccc3c(c2)CC[C@@H](N2CCCC2)CC3)nn1-c1cc2c(nn1)-c1ccccc1CCC2 [BGB324] | 98% | 1200 nM | 13.05 | 15.7 µM | -101% | 100% | 6.94 µM | 2.74 | 7.782 | 100% | > 9.35 µM | > 9.59 µM | 19.024 ×÷ 1.18 (n=3) μM | -100% | -105% | -102% | 100% | > 9.15 µM | 6.27 µM | 19 µM | HeLa-ACE2 synergy score with remdesivi (SARS-CoV-2 [12]): 7.223 δ; Emax (Calu-3 cells [11]): 100%
10 | COc1cc(-n2cnc3cc(-c4ccc(Cl)cc4)sc3c2=O)ccc1OCCN1CCCC1 [GW-803430] | 100% |  |  | 18.9 µM |  | 100% |  |  | 5.656 | 100% |  | > 9.59 µM |  |  |  |  | 100% | > 7.88 µM | > 9.98 µM |  | HeLa-ACE2 SI (SARS-CoV-2 [1]): 11.16; EC50 (SARS-CoV-2 [1]; [24]): 1700 nM; HeLa-ACE2 uninfected cytotoxicity Sinf Average (HeLa-ACE2 cells [3]): -100%; Calu-3 SI (SARS-CoV-2 [4]): 0.88; EC50 (SARS-CoV-2 [4]; [25]): 6.57 µM; EC50 (SARS-CoV-2 [5]; [19]): > 9.59 µM; Calu-3 uninfected cytotoxicity Sinf Average (Calu-3 cells [7]): -116%; Emax (Calu-3 cells [11]): 100%; CC50 (in vitro): 5.81 µM; HepG2 72-hour cytotoxicity Sinf Average (HepG2 [14]): -100%; HEK293T 72-hour cytotoxicty Sinf Average (HEK293T [16]): -101%
